The text below walks through data of patent publication US6753425B2, “Photographic processing composition containing bistriazinyl arylenediamine derivative” (Fuji Photo Film Co., Ltd., priority 2000, dated 2004).

Read-outs that look alike come from different tables or passages of the source.

The nature of series [1]: Stability against deposition of precipitates (visual judgement of the stored processing composition). It counts as physicochemical. The arrangement: key: the level of conspicuous precipitation was xx; the level of apparent precipitation was x; the level of slight precipitation was Δ; the level of no precipitation but clouding was ◯; the level of complete transparency with neither clouding nor precipitation was ◯◯.

Series [2] can be described thus: Solubility at the preparation of the additive composition for a fixing solution. As to conditions: Example 5 additive composition, dissolution aid none. The series is classed as physicochemical.
[3] abbreviates: Example 1 concentrated color developing composition, 15 mmol added, glass bottle, 4 weeks at room temperature.
Setting [4] is: Example 1 concentrated color developing composition, 15 mmol added, glass bottle, 4 weeks at −5° C.
Where [5] appears, read: Example 2 color developing composition with increased developing agent, 25 mmol added, 4 weeks at room temperature.
Where [6] appears, read: Example 2 color developing composition with increased developing agent, 25 mmol added, 4 weeks at −5° C.
Where [7] appears, read: Example 3 fixing composition, 5 mmol added, 4 weeks at room temperature.
Setting [8] is: Example 3 fixing composition, 5 mmol added, 4 weeks at −5° C.
[9] abbreviates: Example 4 color developing composition for color negative film, 15 mmol added, 4 weeks at room temperature.
Setting [10] is: Example 4 color developing composition for color negative film, 15 mmol added, 4 weeks at −5° C.
[11] abbreviates: Example 5 additive composition, compound 70 mmol, dissolution aid none, −5° C.

As to `O=S(=O)([O-])CCNc1nc(NCC(O)CO)nc(Nc2ccc(Nc3nc(NCCS(=O)(=O)[O-])nc(NCC(O)CO)n3)cc2)n1.[Na+].[Na+]` (centres unmarked) [Compound A-2], the “Evaluation of Deposition (room temperature)” value in series [1] (setting [3]), in series [1] (setting [5]), in series [1] (setting [7]) and in series [1] (setting [9]) was “◯◯” in each case. Further, the “Evaluation of Deposition (−5° C.)” value in series [1] (setting [4]), in series [1] (setting [6]), in series [1] (setting [8]), in series [1] (setting [10]) and in series [1] (setting [11]) was “◯◯” throughout. Also, in series [2] (compound 70 mmol), the “Solubility at the Preparation of Solution” value is recorded as “Completely”.

Take `O=S(=O)([O-])CCNc1nc(NCC(O)CO)nc(Nc2cccc(Nc3nc(NCCS(=O)(=O)[O-])nc(NCC(O)CO)n3)c2)n1.[Na+].[Na+]` (centres unmarked) [Compound A-3]: the “Evaluation of Deposition (room temperature)” value in series [1] (setting [3]), in series [1] (setting [5]), in series [1] (setting [7]) and in series [1] (setting [9]) was “◯◯” in each case. In addition, the “Evaluation of Deposition (−5° C.)” value was “◯◯” in series [1] (setting [4]); “◯◯” in series [1] (setting [6]); “◯◯” in series [1] (setting [8]); “◯◯” in series [1] (setting [10]); “◯◯” in series [1] (setting [11]); “◯◯” in series [1] (Example 5 additive composition, compound 140 mmol, dissolution aid none, −5° C.). In addition, the “Solubility at the Preparation of Solution” value in series [2] (compound 70 mmol) and in series [2] (compound 140 mmol) was “Completely” in each case.

`COc1cc(Nc2nc(NCCS(=O)(=O)[O-])nc(NCC(O)CO)n2)c(OC)cc1Nc1nc(NCCS(=O)(=O)[O-])nc(NCC(O)CO)n1.[Na+].[Na+]` (centres unmarked) [Compound A-7]: in series [1], the “Evaluation of Deposition (room temperature)” value is reported as “◯◯” and the “Evaluation of Deposition (−5° C.)” value is on record as “◯”.

For the molecule `CC(CO)Nc1nc(NCC(O)CO)nc(Nc2cc(Nc3nc(NCC(O)CO)nc(NC(C)CO)n3)cc(S(=O)(=O)[O-])c2)n1.[Na+]` (centres unmarked) [Compound A-23], in series [1], the “Evaluation of Deposition (room temperature)” value is on record as “◯◯”; the “Evaluation of Deposition (−5° C.)” value was “◯◯ and ◯”.
